Source: ChEMBL document CHEMBL1201862, “PubChem BioAssay data set” (2004)
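96-well plates; 48 h exposure; 5 concentrations. Endpoints by linear interpolation between flanking doses. Not reached: highest tested concentration assigned. GI50 = concentration required for 50% inhibition of growth.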 The source made the active and inactive calls. Rule as the data show it: active = GI50 up to about 1.1 µM and inactive = higher.

Key:
Assay in all cases: growth of human tumour cells (NCI), 48 h
KM12 = system: KM12
NCI/ADR-RES = system: NCI/ADR-RES
OVCAR-3 = system: OVCAR-3
ACHN = system: ACHN
SF-539 = system: SF-539
M14 = system: M14
MCF7 = system: MCF7
A498 = system: A498
HOP-92 = system: HOP-92
K562 = system: K562
UO-31 = system: UO-31
LOX IMVI = system: LOX IMVI
SN12C = system: SN12C
HCT-116 = system: HCT-116
MOLT-4 = system: MOLT-4
786-0 = system: 786-0
U-251 = system: U-251
CCRF-CEM = system: CCRF-CEM
HCC 2998 = system: HCC 2998
RXF 393 = system: RXF 393

Measured: GI50

N#CC(C#N)=CNCCN1CCN(C=C(C#N)C#N)CC1
inactive: KM12 > 100 µM | NCI/ADR-RES > 100 µM | OVCAR-3 > 100 µM | ACHN > 100 µM | SF-539 > 100 µM | M14 > 100 µM | MCF7 > 100 µM | A498 > 100 µM | HOP-92 > 100 µM | K562 > 100 µM | UO-31 > 100 µM | LOX IMVI > 100 µM | SN12C > 100 µM | HCT-116 > 100 µM | MOLT-4 > 100 µM | 786-0 > 100 µM | U-251 > 100 µM

O=C(Nc1ccccc1)OCCN=c1c2ccccc2ccc2ccccc12
inactive: CCRF-CEM 18.9 µM | KM12 19.1 µM | NCI/ADR-RES 21.3 µM | OVCAR-3 17.5 µM | ACHN 20.9 µM | SF-539 19.8 µM | M14 19.1 µM | MCF7 > 10 µM | HCC 2998 11.2 µM | HOP-92 18.4 µM | K562 14.7 µM | UO-31 17 µM | RXF 393 23.8 µM | LOX IMVI 20.3 µM | SN12C 25.5 µM | HCT-116 16.9 µM | MOLT-4 15.7 µM | 786-0 32.7 µM | U-251 25.9 µM

C[C@@H](O)C(=O)N1[C@@H]2CC3CC[C@]2(CS1(=O)=O)C3(C)C
inactive: CCRF-CEM 24.2 µM | KM12 82.2 µM | NCI/ADR-RES > 100 µM | OVCAR-3 > 100 µM | ACHN 64.1 µM | SF-539 48.9 µM | M14 93.5 µM | MCF7 > 100 µM | HCC 2998 49.1 µM | HOP-92 66.1 µM | K562 68.1 µM | UO-31 > 100 µM | RXF 393 > 100 µM | LOX IMVI > 100 µM | SN12C 55.5 µM | HCT-116 67.8 µM | MOLT-4 31.1 µM | 786-0 52.8 µM | U-251 52.1 µM

Cc1ccc2c(c1C)CC1(Cc3ccc(C)c(C)c3C1=O)C2=O (stereo unspecified)
inactive: CCRF-CEM > 100 µM | KM12 > 100 µM | NCI/ADR-RES > 100 µM | OVCAR-3 > 100 µM | ACHN 46 µM | SF-539 28.6 µM | M14 > 100 µM | MCF7 66.8 µM | HCC 2998 > 100 µM | HOP-92 34 µM | K562 > 100 µM | UO-31 > 100 µM | RXF 393 17.1 µM | LOX IMVI > 100 µM | SN12C > 100 µM | HCT-116 > 100 µM | MOLT-4 > 100 µM | 786-0 39.4 µM | U-251 44 µM

O=C(Nc1ccc2ncccc2c1)c1cc2c(cc1Cl)Sc1nccn1S2(=O)=O
inactive: KM12 6.4 µM | NCI/ADR-RES 19 µM | OVCAR-3 21.7 µM | ACHN 31.2 µM | SF-539 20 µM | M14 15.1 µM | MCF7 6.12 µM | HCC 2998 14.7 µM | HOP-92 27.7 µM | K562 6.31 µM | UO-31 18.2 µM | RXF 393 15.6 µM | LOX IMVI 12.9 µM | SN12C 17.5 µM | HCT-116 12.8 µM | MOLT-4 18.4 µM | 786-0 13.6 µM | U-251 13.6 µM

O=C1c2cccc3cc([N+](=O)[O-])cc(c23)C(=O)N1O
inactive: CCRF-CEM 27 µM | KM12 20.6 µM | NCI/ADR-RES 40.8 µM | OVCAR-3 28.9 µM | ACHN 28.1 µM | M14 39.2 µM | MCF7 24.8 µM | HCC 2998 25.2 µM | HOP-92 57 µM | K562 36.8 µM | UO-31 31.7 µM | RXF 393 33 µM | LOX IMVI 25.9 µM | SN12C 33.5 µM | HCT-116 27 µM | MOLT-4 28.1 µM | 786-0 45.2 µM | U-251 41.8 µM

CC(=O)/C=c1\[nH]/c(=C\C=C\c2ccccc2)c(=O)n1/C=C1\C(=O)Oc2ccccc2C1=O
inactive: CCRF-CEM > 100 µM | KM12 > 100 µM | NCI/ADR-RES > 100 µM | OVCAR-3 > 100 µM | ACHN > 100 µM | SF-539 > 100 µM | M14 > 100 µM | MCF7 > 100 µM | A498 15.3 µM | HOP-92 > 100 µM | K562 > 100 µM | UO-31 > 100 µM | LOX IMVI > 100 µM | HCT-116 > 100 µM | MOLT-4 > 100 µM | 786-0 > 100 µM | U-251 > 100 µM

CC#CC#C/C=C1/C=CC2(CCCCO2)O1 (stereo unspecified)
inactive: CCRF-CEM 21.2 µM | KM12 > 100 µM | NCI/ADR-RES > 100 µM | SF-539 > 100 µM | M14 > 100 µM | MCF7 94.4 µM | HCC 2998 > 100 µM | A498 > 100 µM | HOP-92 > 100 µM | K562 40.2 µM | UO-31 42.9 µM | LOX IMVI 90.2 µM | SN12C > 100 µM | HCT-116 > 100 µM | MOLT-4 33.5 µM | 786-0 > 100 µM | U-251 > 100 µM

COC(=O)c1c(C)cccc1C1CN=NC12Cc1cc(C)c(C)cc1C2=O (stereo unspecified)
inactive: CCRF-CEM 37.8 µM | KM12 30.5 µM | NCI/ADR-RES 27.4 µM | OVCAR-3 62.4 µM | ACHN 57.4 µM | SF-539 > 100 µM | M14 40.6 µM | MCF7 33.6 µM | HCC 2998 > 100 µM | HOP-92 30.4 µM | K562 25.4 µM | UO-31 31.6 µM | RXF 393 68.4 µM | LOX IMVI 24.2 µM | SN12C 75.3 µM | HCT-116 34.8 µM | MOLT-4 33.9 µM | 786-0 62.4 µM | U-251 41.6 µM

Cn1/c(=N\N=C(\CNCCO)[C@@H](O)[C@@H]2OC(c3ccccc3)OC[C@H]2O)sc2ccccc21 (stereo partly specified)
inactive: CCRF-CEM 17.8 µM | KM12 17.1 µM | NCI/ADR-RES 50.7 µM | OVCAR-3 16.4 µM | ACHN 19.9 µM | SF-539 17.5 µM | M14 13.2 µM | MCF7 16.7 µM | HCC 2998 11.3 µM | HOP-92 11 µM | K562 14.8 µM | UO-31 15.4 µM | RXF 393 16.1 µM | LOX IMVI 15.1 µM | SN12C 17.9 µM | HCT-116 16 µM | MOLT-4 14.9 µM | 786-0 18 µM | U-251 17.3 µM

Cc1cn(C(=O)NC23CC4CC(CC(C4)C2)C3)c(=O)[nH]c1=O
inactive: CCRF-CEM 25.6 µM | KM12 64.4 µM | NCI/ADR-RES 27.4 µM | OVCAR-3 88.3 µM | ACHN 27.9 µM | SF-539 46.2 µM | M14 36.1 µM | MCF7 31.6 µM | HCC 2998 50.4 µM | HOP-92 51.6 µM | K562 31.6 µM | UO-31 69.5 µM | RXF 393 21.6 µM | LOX IMVI 27.5 µM | SN12C 25.4 µM | HCT-116 34.4 µM | MOLT-4 41.5 µM | 786-0 37.2 µM | U-251 43.5 µM
